# Measured values taken from the supplement of paper PMC10307832.
# What was measured:
# Assay in all cases: relative viability (nuclei count vs DMSO), 5 days (fraction); higher = more cells survive
# [1] = compound: O=c1[nH]cc(F)c(=O)[nH]1 [5-Fluorouracil] + Cc1cc(Nc2cc(N3CCN(C)CC3)nc(Sc3ccc(NC(=O)C4CC4)cc3)n2)n[nH]1 [Tozasertib] (partner 0.1 µM)
# Outline: (§1)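 Cells from lung cancer lines were seeded into 1536-well plates and, one day later, dosed by pin tool. Treatments were either a single drug or a fixed dose of an anchor drug with five library-drug doses (not always all listed) in √10 steps. After 5 days, nuclei were stained in a one-step fixation (final 0.05% Triton X-100, 1% formaldehyde, 1 ug/ml Hoechst) and counted on 4× images, and relative viability is the treated-to-vehicle nuclei ratio, as the median of duplicate plates.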
# [2] = compound: O=c1[nH]cc(F)c(=O)[nH]1 [5-Fluorouracil] + Cc1nc(NC(=O)N2CCC[C@H]2C(N)=O)sc1-c1ccnc(C(C)(C)C(F)(F)F)c1 [Alpelisib] (partner 2 µM)
# Outline: as §1
# [3] = compound: O=c1[nH]cc(F)c(=O)[nH]1 [5-Fluorouracil] + C[C@@H](Oc1cc(-c2cnn(C3CCNCC3)c2)cnc1N)c1c(Cl)ccc(F)c1Cl [Crizotinib] (partner 1 µM)
# Outline: as §1
# [4] = compound: O=c1[nH]cc(F)c(=O)[nH]1 [5-Fluorouracil] + COc1cc2c(Oc3ccc(NC(=O)C4(C(=O)Nc5ccc(F)cc5)CC4)cc3F)ccnc2cc1OCCCN1CCOCC1 [Foretinib] (partner 0.25 µM)
# Outline: as §1
# 5-Fluorouracil + OSI-027 = compound: O=c1[nH]cc(F)c(=O)[nH]1 [5-Fluorouracil] + COc1cccc2cc(-c3nc([C@H]4CC[C@H](C(=O)O)CC4)n4ncnc(N)c34)[nH]c12 [OSI-027] (partner 0.5 µM)
# Outline: as §1
Cell Line,relative viability ([1]; first compound 0.02 µM),relative viability ([1]; first compound 0.2 µM),relative viability ([1]; first compound 0.6325 µM),relative viability ([1]; first compound 2 µM),relative viability ([2]; first compound 0.02 µM),relative viability ([2]; first compound 0.2 µM),relative viability ([2]; first compound 0.6325 µM),relative viability ([2]; first compound 2 µM),relative viability ([3]; first compound 0.02 µM),relative viability ([3]; first compound 0.2 µM),relative viability ([3]; first compound 0.6325 µM),relative viability ([3]; first compound 2 µM),relative viability ([4]; first compound 0.02 µM),relative viability ([4]; first compound 0.2 µM),relative viability ([4]; first compound 0.6325 µM),relative viability ([4]; first compound 2 µM),relative viability (5-Fluorouracil + OSI-027; first compound 0.02 µM),relative viability (5-Fluorouracil + OSI-027; first compound 0.2 µM),relative viability (5-Fluorouracil + OSI-027; first compound 0.6325 µM),relative viability (5-Fluorouracil + OSI-027; first compound 2 µM)
NCI-H2085,0.867,0.784,0.828,0.608,0.689,1.03,0.828,0.613,0.962,1.01,0.756,0.636,1.02,0.899,0.93,0.592,0.69,0.676,0.771,0.502
NCI-H2087,0.282,0.236,0.253,0.156,0.977,0.923,0.659,0.536,0.921,0.817,0.541,0.509,1.27,1.05,0.628,0.519,0.555,0.563,0.464,0.346
NCI-H2126,0.634,0.392,0.316,0.281,0.668,0.337,0.274,0.272,0.962,0.528,0.341,0.307,1.32,0.592,0.399,0.361,0.589,0.39,0.302,0.365
NCI-H2170,0.796,0.671,0.436,0.32,0.82,0.734,0.472,0.452,1.28,1.1,0.608,0.468,1,0.872,0.537,0.44,0.681,0.594,0.459,0.37
NCI-H2228,0.293,0.25,0.24,0.187,0.582,0.655,0.59,0.409,0.441,0.483,0.457,0.343,0.981,0.808,0.625,0.343,0.404,0.55,0.332,0.329
NCI-H2347,0.606,0.425,0.303,0.292,1.09,0.709,0.457,0.447,0.78,0.534,0.563,0.479,0.689,0.822,0.453,0.513,0.939,0.322,0.298,0.329
NCI-H2405,0.686,0.81,0.733,0.703,0.793,0.705,0.737,0.609,0.871,0.954,0.797,0.579,1,1.13,1.01,1.02,0.633,0.661,0.701,0.604
NCI-H3122,0.382,0.356,0.203,0.157,0.796,0.653,0.371,0.246,0.252,0.274,0.232,0.215,0.956,0.721,0.363,0.218,1.04,0.871,0.349,
PC-3 [JPC-3],0.828,0.881,0.827,0.554,0.913,1.04,0.838,0.708,0.989,0.996,0.882,0.676,1.06,1.03,0.881,0.703,0.824,0.805,0.726,0.625
PC-14,0.54,0.618,0.599,0.453,1.02,0.962,0.748,0.424,0.899,0.928,0.788,0.456,1.1,0.987,0.757,0.58,0.876,0.976,0.747,0.296
RERF-LC-KJ,0.499,0.432,0.416,0.414,0.764,0.836,0.852,0.62,0.867,0.841,0.849,0.665,0.901,0.938,0.831,0.823,0.609,0.553,0.543,0.471
SK-LU-1,0.412,0.408,0.346,0.338,0.934,1.12,0.868,0.704,0.98,0.977,0.918,0.74,0.819,0.902,0.75,0.681,0.374,0.309,0.342,0.321
SK-MES-1,1.05,0.408,0.319,0.28,0.798,0.789,0.447,0.341,1.01,0.743,0.368,0.319,0.872,0.946,0.45,0.358,0.577,0.367,0.253,0.196
SW 1573,0.205,0.175,0.183,0.153,0.705,0.877,0.867,0.507,0.824,0.899,0.778,0.463,0.867,1.11,0.784,0.641,0.548,0.73,0.633,0.327
